“Also recorded” adds a separate entry of the source. Read-outs that look alike come from different tables or passages of the source. Starred links: 1 amine or outer side, 2 acyl side, 3 side chain; linkers in the order of their positions; H or OH if unused. Non-standard residues stand in square brackets, D forms with d. Residues, ends and D or L forms follow the SMILES beside them. Groups on a side chain read outwards from the residue. *: point of attachment. Ethylenediamine = C(CN[*:2])N[*:1]; Hyp = O=C(O)[C@@H]1C[C@@H](O)CN1; Phg = N[C@H](C(=O)O)c1ccccc1; CO = O=C([*:1])[*:2]; Bn = c1ccc(C*)cc1
Legend:
[1] = Serum glucose and insulin levels during and post SOM230 treatment in patients; conditions: human, in vivo
[2] = system: cells with more than 1 or 2 centrosomes per cell; assay: Centrosome index by γ-tubulin immunolocalization in mammary glands of LoxP mice (genomic instability); format: in vivo, mouse; conditions: 7 days of treatment
Source text: Evidence directed to this point is presented in FIG. 2A, wherein immunolocalization of γ-tubulin (green) is used to locate centrosomes in the mammary glands of wildtype (WT) or Brca1 deficient (Brca1^LoxP/Brca1^LoxP) mice. Nuclei (blue) are counterstained. As shown therein, 1 or 2 centrosomes per cell are observed in wildtype mice, reflecting normal, control numbers of centrosomes in individual cells.
Nuclei (blue) are counterstained. In wildtype mice, 1 or 2 centrosomes per cell are observed, reflecting normal, control numbers of centrosomes in individual cells.

[3] = humans, cited from earlier work
[4] = Phase III, Cushing's disease; cited from earlier work
[5] = system: somatostatin receptors; conditions: of 5 subtypes; cited from earlier work
[6] = system: Brca1LoxP/Brca1LoxP mice; assay: LoxP mammary phenotype (duct width, hyperplasia, HANs) after IGF-I inhibitor treatment; format: in vivo, mouse; conditions: for duct width, glandular hyperplasia and hyperplastic alveolar nodules (in words): symptomatic LoxP mice, after treatment
Description: The present inventor and colleagues have previously shown that growth hormone induced IGF-I activity is essential for mammary development and also estrogen and progesterone action. To determine whether inhibition of IGF-I action would prevent, reverse or delay the abnormalities associated with BRCA deficiency observed in LoxP animals, symptomatic animals were treated with three different compounds that inhibit IGF-I action.
Women with BRCA1 mutations are at high risk for developing breast cancer. As described above, an animal model of Brca1 deficiency (Brca1^LoxP/Brca1^LoxP mouse model system, also referred to herein as the LoxP mouse model system) was developed in which the mammary glands are abnormally developed and which presents with a phenotype similar to that observed in women with BRCA1 mutations. The Brca1loxP/loxP phenotype is characterized by ductal dilatation and epithelial hyperplasia. In earlier studies, 4 month old Brca1loxP/loxP mice were treated with pasireotide, PQ401 (a small molecule kinase inhibitor of the IGF-I receptor), or vehicle for 7 days. At the end of that period, mammary development in drug- vs. vehicle-treated animals was compared.

[7] = system: Ki67 staining (cell proliferation); assay: Cell proliferation by Ki67 immunohistochemistry in mammary glands of LoxP mice; format: in vivo, mouse; conditions: for cell proliferation as assessed by Ki67 immunohistochemistry: after treatment
[8] = system: mammary gland development; conditions: rats; cited from earlier work
[9] = rats; Bruns et al. 2002, van der Hoek et al. 2004; cited from earlier work
[10] = target: SSTR-1 (Homo sapiens, UniProt P30872); conditions: cited from earlier work
[11] = target: SSTR-5 (Homo sapiens, UniProt P35346); conditions: cited from earlier work
[12] = system: PR/p63 double positive cells; assay: Simultaneous immunofluorescence for PR and p63 in mammary glands of Brca1LoxP/Brca1LoxP (C57 loxP) mice; format: in vivo, mouse; conditions: 7 days of treatment; for frequency of PR/p63 double positive cells: C57 loxP mice, untreated loxP 22.5±0.8%, wildtype 3.8±0.4%; for frequency of PR/p63 double positive cells (in words): LoxP mice
Description: Simultaneous Immunofluorescence for PR and p63: 3-5 μm paraffin embedded tissue sections from C57/b and C57 loxP mice were stained using antibodies against PR and p63 (Lab Vision). Briefly, samples were deparaffinized by 60° C. heating following by xylene immersion for 30 min. Antigens were retrieved by heating 10 min 95° C. followed by 10 min 85° C. in citric acid pH 6.0 (Vector). […] Next day, specific secondary goat anti mouse Alexa Fluor 488 and donkey anti rabbit Alexa Fluor 594 antibodies (Invitrogen) were used to a final concentration of 1:200 to detect the primary antibodies, by incubating the samples for 1 hour at room temperature. Finally, samples were counterstained using DAPI at 0.02 mg/ml and mounted with Vectashield (Vector). Samples were imaged using a 40× objective with 0.95 numerical aperture Zeiss Plan-Apochromat objective on a Zeiss Axiovert equipped with epifluorescence. The number of epithelial cells positive for PR, p63 or both, was then calculated as the relative frequency of positive cells per epithelial cells per image. Finally, frequencies of positive cells between animal groups were statistically analyzed with the chi-square distribution. A probability of p<0.05 was considered statistically significant. Women with BRCA1 mutations are at high risk for developing breast cancer. As described above, an animal model of Brca1 deficiency (Brca1^LoxP/Brca1^LoxP mouse model system, also referred to herein as the LoxP mouse model system) was developed in which the mammary glands are abnormally developed and which presents with a phenotype similar to that observed in women with BRCA1 mutations. The Brca1loxP/loxP phenotype is characterized by ductal dilatation and epithelial hyperplasia. In earlier studies, 4 month old Brca1loxP/loxP mice were treated with pasireotide, PQ401 (a small molecule kinase inhibitor of the IGF-I receptor), or vehicle for 7 days. At the end of that period, mammary development in drug- vs. vehicle-treated animals was compared.

[13] = target: SSTR-3 (Homo sapiens, UniProt P32745); conditions: cited from earlier work
[14] = target: SSTR-2 (Homo sapiens, UniProt P30874); conditions: cited from earlier work
[15] = system: breast cancer; conditions: women with hyperplastic lesions of the breast; clinical evidence; cited from earlier work
[16] = 13 patients, 30 days after stopping SOM230

Sequence of SSTR-1 (P30872 whole entry, species assumed): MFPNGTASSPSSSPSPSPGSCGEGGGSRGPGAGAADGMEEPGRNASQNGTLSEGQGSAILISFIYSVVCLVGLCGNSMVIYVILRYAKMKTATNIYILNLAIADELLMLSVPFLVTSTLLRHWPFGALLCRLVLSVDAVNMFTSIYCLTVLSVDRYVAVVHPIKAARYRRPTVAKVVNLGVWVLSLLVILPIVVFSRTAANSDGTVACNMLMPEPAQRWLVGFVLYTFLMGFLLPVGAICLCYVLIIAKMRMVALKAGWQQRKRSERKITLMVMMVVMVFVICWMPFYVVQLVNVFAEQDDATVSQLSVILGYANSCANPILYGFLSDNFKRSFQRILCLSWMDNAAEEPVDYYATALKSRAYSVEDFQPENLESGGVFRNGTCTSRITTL
Sequence of SSTR-3 (P32745 whole entry, species assumed): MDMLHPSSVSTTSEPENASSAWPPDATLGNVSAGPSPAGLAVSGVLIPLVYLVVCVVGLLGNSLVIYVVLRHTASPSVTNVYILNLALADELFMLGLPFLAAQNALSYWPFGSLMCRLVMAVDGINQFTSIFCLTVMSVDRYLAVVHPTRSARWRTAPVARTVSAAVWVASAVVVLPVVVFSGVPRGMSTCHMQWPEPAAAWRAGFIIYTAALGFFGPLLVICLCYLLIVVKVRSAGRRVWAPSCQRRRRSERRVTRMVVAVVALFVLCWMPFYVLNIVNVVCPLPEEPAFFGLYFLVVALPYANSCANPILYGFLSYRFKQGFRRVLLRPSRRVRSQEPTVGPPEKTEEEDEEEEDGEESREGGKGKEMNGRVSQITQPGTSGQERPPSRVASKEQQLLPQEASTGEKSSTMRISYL
Sequence of SSTR-5 (P35346 whole entry, species assumed): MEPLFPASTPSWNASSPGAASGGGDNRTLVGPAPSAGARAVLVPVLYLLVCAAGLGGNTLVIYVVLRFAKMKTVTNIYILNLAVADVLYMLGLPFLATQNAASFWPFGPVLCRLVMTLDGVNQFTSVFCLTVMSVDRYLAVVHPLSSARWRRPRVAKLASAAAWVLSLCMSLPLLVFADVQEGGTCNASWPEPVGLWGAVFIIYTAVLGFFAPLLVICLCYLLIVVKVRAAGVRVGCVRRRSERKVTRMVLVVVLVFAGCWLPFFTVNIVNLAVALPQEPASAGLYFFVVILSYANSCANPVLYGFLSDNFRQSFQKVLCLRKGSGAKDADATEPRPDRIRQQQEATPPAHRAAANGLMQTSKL
Sequence of SSTR-2 (P30874 whole entry, species assumed): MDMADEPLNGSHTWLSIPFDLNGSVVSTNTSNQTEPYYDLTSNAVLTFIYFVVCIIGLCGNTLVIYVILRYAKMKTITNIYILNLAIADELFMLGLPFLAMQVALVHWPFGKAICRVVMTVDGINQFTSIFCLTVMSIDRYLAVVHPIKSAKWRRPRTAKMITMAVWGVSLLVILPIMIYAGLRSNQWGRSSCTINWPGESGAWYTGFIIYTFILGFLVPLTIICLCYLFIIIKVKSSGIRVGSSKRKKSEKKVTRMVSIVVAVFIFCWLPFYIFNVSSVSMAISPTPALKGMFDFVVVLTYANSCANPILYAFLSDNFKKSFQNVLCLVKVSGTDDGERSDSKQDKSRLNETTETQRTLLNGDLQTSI

NCCCC[C@@H]1NC(=O)[C@@H](Cc2c[nH]c3ccccc23)NC(=O)[C@H](c2ccccc2)NC(=O)[C@@H]2C[C@@H](OC(=O)NCCN)CN2C(=O)[C@H](Cc2ccccc2)NC(=O)[C@H](Cc2ccc(OCc3ccccc3)cc2)NC1=O [SOM230] (cyclo(F[Hyp]([CO-Ethylenediamine])[Phg][dW]KY(Bn)))
normalization of finger stick glucose after stopping medication (in words) [1]: almost immediately | centrosome index / frequency of cells with more than 1 or 2 centrosomes (in words) [2]: significantly reduced | terminal half life ([3]; Bruns et al. 2002, van der Hoek et al. 2004): 27 h | plasma half life ([3]; Ma et al. 2005): approximately 12 hours | HbA1C level [4]: increased | cholelithiasis [4]: 30% | diarrhea [4]: 58% | fasting plasma glucose level [4]: increased | hyperglycemia [4]: 40% | nausea [4]: 52% | patients with a hyperglycemia-related adverse event [4]: 73% | somatostatin receptors bound [5]: 4 of the 5 | abnormal ductal dilatation ([6]; LoxP mice): significant effect on inhibiting | formation of HANs ([6]; LoxP mice): preventing formation of HANs | duct width at 21 days post-treatment (in words) ([6]; LoxP mice, SOM230 treatment then 21 days rest): maintained | time clinical benefit (reduction in PR/p63+ progenitor cells, ductal width and/or proliferative cells) is maintained into the rest period ([6]; LoxP mice, after end of administration): at least 20 days | duct width, glandular hyperplasia and hyperplastic alveolar nodules (in words) [6]: reduces duct width | duct width, glandular hyperplasia and hyperplastic alveolar nodules (in words) ([6]; listed as Pasireotide): reduces duct width, glandular hyperplasia and hyperplastic alveolar nodules | cell proliferation as assessed by Ki67 immunohistochemistry [7]: significantly reduce cell proliferation | cell proliferation (Ki67 staining) at 21 days post-treatment ([7]; treated vs untreated, 21 days into rest period): continues to be inhibited | IRS-1 phosphorylation in the mammary gland [8]: reduction | growth hormone secretion from the pituitary [8]: inhibitory effect | mammary gland development [8]: prevents mammary gland development | serum glucose at 60 days after discontinuation (13 patients): normal | serum insulin at 60 days after discontinuation (13 patients): normal | time by which serum glucose and insulin levels normalize after SOM230 administration ceases (13 patients): ≤ 30 days | mean glucose [16]: 95 | serum insulin [16]: increased | women tested with finger stick glucoses of less than 92 mg/dL (by 4 days after cessation of SOM230 administration): 6 of 8 | patients with hyperglycemia (patients diagnosed with or pre-disposed to breast cancer treated with SOM230): 100% | 30 day post-treatment glucose of the patient ultimately determined to be diabetic (single patient, initial blood sugar 100): 117 | terminal half life [9]: 27 h | affinity for SSTR-1 [10]: high binding affinity | affinity for SSTR-5 [11]: high binding affinity | frequency of PR/p63 double positive cells [12]: 5% | frequency of PR/p63 double positive cells ([12]; listed as pasireotide): 4.8±1.2% | frequency of PR/p63 double positive cells (in words) [12]: significantly reduce; also recorded: dramatically reduced | affinity for SSTR-3 [13]: high binding affinity | affinity for SSTR-2 [14]: high binding affinity

COc1ccc(Cl)cc1NC(=O)Nc1cc(C)nc2ccccc12 [PQ401]
centrosome index / frequency of cells with more than 1 or 2 centrosomes (in words) [2]: significantly reduced | duct width, glandular hyperplasia and hyperplastic alveolar nodules (in words) [6]: reduces duct width, glandular hyperplasia and hyperplastic alveolar nodules | cell proliferation as assessed by Ki67 immunohistochemistry [7]: significantly reduce cell proliferation | frequency of PR/p63 double positive cells (in words) [12]: significantly reduce; also recorded: dramatically reduced

CC/C(=C(\c1ccccc1)c1ccc(OCCN(C)C)cc1)c1ccccc1 [tamoxifen]
prevention of the development of cancer [15]: about 50%

C[C@H](N)C(=O)NCC(=O)N[C@H]1CSSC[C@@H](C(=O)O)NC(=O)[C@H](CO)NC(=O)[C@H]([C@@H](C)O)NC(=O)[C@H](Cc2ccccc2)NC(=O)[C@H]([C@@H](C)O)NC(=O)C(CCCCN)NC(=O)[C@H](Cc2c[nH]c3ccccc23)NC(=O)[C@H](Cc2ccccc2)NC(=O)[C@H](Cc2ccccc2)NC(=O)[C@H](CC(N)=O)NC(=O)[C@H](CCCCN)NC1=O (some centres unmarked) [SS14]
somatostatin receptors bound [5]: all of the somatostatin receptors | number of HANs ([6]; nine month old LoxP animals): impressive reduction | duct width, glandular hyperplasia and hyperplastic alveolar nodules (in words) [6]: reduces duct width, glandular hyperplasia and hyperplastic alveolar nodules

Source: patent US9408887B2, “Intermittent dosing regimen for treating breast cancer” (New York University, priority 2011, dated 2016)
